Experimental data taken from patent US8653041B2, “Antibacterial aminoglycoside analogs” (Achaogen, Inc., priority 2010, dated 2014).

Key:
[1] = 14-day rat toxicology (nephrotoxicity), once-daily subcutaneous injection; details: once daily, 14 days, Sprague-Dawley rat
Description: The study design utilized once-daily subcutaneous injection administration to the rat for 14 days and assessment of reversibility of any changes following a 28-day recovery period.
The dose volume administered to each animal was 1 mL/kg.

Pseudomonas aeruginosa = experiment: MIC, CLSI broth microdilution, Pseudomonas aeruginosa panel; format: cell-based
Outline: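 Reference CLSI broth microdilution: two-fold compound dilutions in Mueller Hinton Broth, mixed 1:1 with inoculum to final 5×10^5 CFU/mL. Incubated 20 h at 35 C in ambient air. Panel of 27 isolates: 22 clinical strains carrying aminoglycoside-modifying enzymes or perm/efflux resistance, 5 susceptible.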

Acinetobacter baumannii = experiment: MIC, CLSI broth microdilution, Acinetobacter baumannii panel; format: cell-based
Outline: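 CLSI M7-A7 broth microdilution in Mueller Hinton Broth, inoculum 5×10^5 CFU/mL, 20 h at 35 C in ambient air. Panel of 29 A. baumannii isolates, 24 clinical carrying aminoglycoside-modifying enzymes or perm/efflux mechanisms and 5 susceptible.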

With gentamicin the mortality and morbidity ([1]; 100 mg/kg/day subcutaneous) was “resulted in mortality and morbidity at 100 mg/kg/day due to nephrotoxicity”, the “macroscopic and microscopic changes in the kidneys” value ([1]; all dose levels (10, 30 or 100 mg/kg/day) subcutaneous) was “observed at all dose levels” and the MIC (Pseudomonas aeruginosa; P. aeruginosa clinical strain 1 (resistant clinical isolate)) was “D (MIC's greater than or equal to 16.0 μg/mL and lower than 32 μg/mL = D)”. For the same substance, the MIC (Pseudomonas aeruginosa; P. aeruginosa clinical strain 2 (resistant clinical isolate)) was “E (MIC's greater than or equal to 32.0 μg/mL = E)”, the MIC (Pseudomonas aeruginosa; P. aeruginosa clinical strain 3 (resistant clinical isolate)) was “E (MIC's greater than or equal to 32.0 μg/mL = E)” and the MIC (Pseudomonas aeruginosa; P. aeruginosa clinical strain 4 (resistant clinical isolate)) was “E (MIC's greater than or equal to 32.0 μg/mL = E)”. The MIC (Pseudomonas aeruginosa; P. aeruginosa clinical strain 5 (resistant clinical isolate)) was “E (MIC's greater than or equal to 32.0 μg/mL = E)”, the MIC (Pseudomonas aeruginosa; P. aeruginosa clinical strain 6 (resistant clinical isolate)) was “E (MIC's greater than or equal to 32.0 μg/mL = E)” and the MIC (Pseudomonas aeruginosa; P. aeruginosa clinical strain 7 (resistant clinical isolate)) was “E (MIC's greater than or equal to 32.0 μg/mL = E)”. For the same substance, the MIC (Pseudomonas aeruginosa; P. aeruginosa clinical strain 8 (resistant clinical isolate)) was “E (MIC's greater than or equal to 32.0 μg/mL = E)”, the MIC (Pseudomonas aeruginosa; P. aeruginosa clinical strain 9 (resistant clinical isolate)) was “E (MIC's greater than or equal to 32.0 μg/mL = E)” and the MIC (Pseudomonas aeruginosa; P. aeruginosa clinical strain 10 (resistant clinical isolate)) was “E (MIC's greater than or equal to 32.0 μg/mL = E)”. For the same substance, the MIC (Pseudomonas aeruginosa; P. aeruginosa clinical strain 11 (resistant clinical isolate)) was “D (MIC's greater than or equal to 16.0 μg/mL and lower than 32 μg/mL = D)”, the MIC (Pseudomonas aeruginosa; P. aeruginosa clinical strain 12 (resistant clinical isolate)) was “E (MIC's greater than or equal to 32.0 μg/mL = E)” and the MIC (Pseudomonas aeruginosa; P. aeruginosa clinical strain 13 (resistant clinical isolate)) was “E (MIC's greater than or equal to 32.0 μg/mL = E)”. For the same substance, the MIC (Pseudomonas aeruginosa; P. aeruginosa clinical strain 14 (resistant clinical isolate)) was “E (MIC's greater than or equal to 32.0 μg/mL = E)”, the MIC (Pseudomonas aeruginosa; P. aeruginosa clinical strain 15 (resistant clinical isolate)) was “E (MIC's greater than or equal to 32.0 μg/mL = E)” and the MIC (Pseudomonas aeruginosa; P. aeruginosa clinical strain 16 (resistant clinical isolate)) was “E (MIC's greater than or equal to 32.0 μg/mL = E)”. For the same substance, the MIC (Pseudomonas aeruginosa; P. aeruginosa clinical strain 17 (resistant clinical isolate)) was “E (MIC's greater than or equal to 32.0 μg/mL = E)”, the MIC (Pseudomonas aeruginosa; P. aeruginosa clinical strain 18 (resistant clinical isolate)) was “E (MIC's greater than or equal to 32.0 μg/mL = E)” and the MIC (Pseudomonas aeruginosa; P. aeruginosa clinical strain 19 (resistant clinical isolate)) was “E (MIC's greater than or equal to 32.0 μg/mL = E)”. For the same substance, the MIC (Pseudomonas aeruginosa; P. aeruginosa clinical strain 20 (resistant clinical isolate)) was “C (MIC's greater than or equal to 8 μg/mL and lower than 16.0 μg/mL = C)”, the MIC (Pseudomonas aeruginosa; P. aeruginosa clinical strain 21 (resistant clinical isolate)) was “C (MIC's greater than or equal to 8 μg/mL and lower than 16.0 μg/mL = C)” and the MIC (Pseudomonas aeruginosa; P. aeruginosa clinical strain 22 (resistant clinical isolate)) was “B (MIC's of greater than 1.0 μg/mL and lower than 8 μg/mL = B)”. For the same substance, the MIC (Pseudomonas aeruginosa; P. aeruginosa strain 23 (susceptible)) was “A (MIC's of 1.0 μg/mL or less = A)”, the MIC (Pseudomonas aeruginosa; P. aeruginosa strain 24 (susceptible)) was “B (MIC's of greater than 1.0 μg/mL and lower than 8 μg/mL = B)” and the MIC (Pseudomonas aeruginosa; P. aeruginosa strain 25 (susceptible)) was “A (MIC's of 1.0 μg/mL or less = A)”. For the same substance, the MIC (Pseudomonas aeruginosa; P. aeruginosa strain 26 (susceptible)) was “A (MIC's of 1.0 μg/mL or less = A)”, the MIC (Pseudomonas aeruginosa; P. aeruginosa strain 27 (susceptible)) was “A (MIC's of 1.0 μg/mL or less = A)” and the MIC (Acinetobacter baumannii; A. baumannii clinical strain 1 (resistant clinical isolate)) was “E (MIC's greater than or equal to 32.0 μg/mL = E)”. For the same substance, the MIC (Acinetobacter baumannii; A. baumannii clinical strain 2 (resistant clinical isolate)) was “E (MIC's greater than or equal to 32.0 μg/mL = E)”, the MIC (Acinetobacter baumannii; A. baumannii clinical strain 3 (resistant clinical isolate)) was “C (MIC's greater than or equal to 8 μg/mL and lower than 16.0 μg/mL = C)” and the MIC (Acinetobacter baumannii; A. baumannii clinical strain 4 (resistant clinical isolate)) was “E (MIC's greater than or equal to 32.0 μg/mL = E)”. For the same substance, the MIC (Acinetobacter baumannii; A. baumannii clinical strain 5 (resistant clinical isolate)) was “E (MIC's greater than or equal to 32.0 μg/mL = E)”, the MIC (Acinetobacter baumannii; A. baumannii clinical strain 6 (resistant clinical isolate)) was “E (MIC's greater than or equal to 32.0 μg/mL = E)” and the MIC (Acinetobacter baumannii; A. baumannii clinical strain 7 (resistant clinical isolate)) was “E (MIC's greater than or equal to 32.0 μg/mL = E)”. The MIC (Acinetobacter baumannii; A. baumannii clinical strain 8 (resistant clinical isolate)) was “E (MIC's greater than or equal to 32.0 μg/mL = E)”, the MIC (Acinetobacter baumannii; A. baumannii clinical strain 9 (resistant clinical isolate)) was “E (MIC's greater than or equal to 32.0 μg/mL = E)” and the MIC (Acinetobacter baumannii; A. baumannii clinical strain 10 (resistant clinical isolate)) was “E (MIC's greater than or equal to 32.0 μg/mL = E)”. For the same substance, the MIC (Acinetobacter baumannii; A. baumannii clinical strain 11 (resistant clinical isolate)) was “E (MIC's greater than or equal to 32.0 μg/mL = E)”, the MIC (Acinetobacter baumannii; A. baumannii clinical strain 12 (resistant clinical isolate)) was “E (MIC's greater than or equal to 32.0 μg/mL = E)” and the MIC (Acinetobacter baumannii; A. baumannii clinical strain 13 (resistant clinical isolate)) was “A (MIC's of 1.0 μg/mL or less = A)”. The MIC (Acinetobacter baumannii; A. baumannii clinical strain 14 (resistant clinical isolate)) was “B (MIC's of greater than 1.0 μg/mL and lower than 8 μg/mL = B)”, the MIC (Acinetobacter baumannii; A. baumannii clinical strain 15 (resistant clinical isolate)) was “A (MIC's of 1.0 μg/mL or less = A)” and the MIC (Acinetobacter baumannii; A. baumannii clinical strain 16 (resistant clinical isolate)) was “B (MIC's of greater than 1.0 μg/mL and lower than 8 μg/mL = B)”. The MIC (Acinetobacter baumannii; A. baumannii clinical strain 17 (resistant clinical isolate)) was “E (MIC's greater than or equal to 32.0 μg/mL = E)”, the MIC (Acinetobacter baumannii; A. baumannii clinical strain 18 (resistant clinical isolate)) was “E (MIC's greater than or equal to 32.0 μg/mL = E)” and the MIC (Acinetobacter baumannii; A. baumannii clinical strain 19 (resistant clinical isolate)) was “B (MIC's of greater than 1.0 μg/mL and lower than 8 μg/mL = B)”. For the same substance, the MIC (Acinetobacter baumannii; A. baumannii clinical strain 20 (resistant clinical isolate)) was “C (MIC's greater than or equal to 8 μg/mL and lower than 16.0 μg/mL = C)”, the MIC (Acinetobacter baumannii; A. baumannii clinical strain 21 (resistant clinical isolate)) was “E (MIC's greater than or equal to 32.0 μg/mL = E)” and the MIC (Acinetobacter baumannii; A. baumannii clinical strain 22 (resistant clinical isolate)) was “E (MIC's greater than or equal to 32.0 μg/mL = E)”. The MIC (Acinetobacter baumannii; A. baumannii clinical strain 23 (resistant clinical isolate)) was “E (MIC's greater than or equal to 32.0 μg/mL = E)”, the MIC (Acinetobacter baumannii; A. baumannii clinical strain 24 (resistant clinical isolate)) was “E (MIC's greater than or equal to 32.0 μg/mL = E)” and the MIC (Acinetobacter baumannii; A. baumannii strain 25 (susceptible)) was “A (MIC's of 1.0 μg/mL or less = A)”. The MIC (Acinetobacter baumannii; A. baumannii strain 26 (susceptible)) was “A (MIC's of 1.0 μg/mL or less = A)”, the MIC (Acinetobacter baumannii; A. baumannii strain 27 (susceptible)) was “A (MIC's of 1.0 μg/mL or less = A)” and the MIC (Acinetobacter baumannii; A. baumannii strain 28 (susceptible)) was “A (MIC's of 1.0 μg/mL or less = A)”. The MIC (Acinetobacter baumannii; A. baumannii strain 29 (susceptible)) was “A (MIC's of 1.0 μg/mL or less = A)”.
